From patent US8232263B2, “17,20(Z)-dehydro vitamin D analogs and their uses” (Wisconsin Alumni Research Foundation, priority 2004, dated 2012) come the findings set out here.

What is called Ki is the dissociation constant of the complex between target and ligand, obtained from inhibition or displacement. The EC50 is the concentration at which the effect is half-maximal.

A short description of assay [1]: Intestinal calcium transport, everted gut sac method, in vitamin D-deficient rats. The conditions noted are these: VIT-III 260, 2340 or 7020 pmol/day versus 1,25(OH)2D3 260 pmol/day, FIG. 5. In kind it is in vivo, Sprague-Dawley rats. As for the experimental part:
(§1) Male, weanling Sprague-Dawley rats were placed on Diet 11 (Suda et al, J. Nutr. 100:1049, 1970) (0.47% Ca)+vitamins AEK for one week followed by Diet 11 (0.02% Ca)+vitamins AEK for 3 weeks. The rats were then switched to the same diet containing 0.47% Ca for one week followed by two weeks on the same diet containing 0.02% Ca. Dose administration began during the last week on 0.02% calcium diet. Four consecutive ip doses were given approximately 24 hours apart. Twenty-four hours after the last dose, blood was collected from the severed neck and the concentration of serum calcium determined by atomic absorption spectrometry as a measure of bone calcium mobilization. The first 10 cm of the intestine was also collected for intestinal calcium transport analysis using the everted gut sac method.
(§2) Antagonism was tested by administering a combination of 1,25(OH)2D3 and the compound to the animal simultaneously.

In assay [2] the target is T1, full-length recombinant rat vitamin D receptor (Rattus norvegicus, UniProt P13053).
T1 construct: Full-length recombinant rat receptor was expressed in E. coli BL21 (DE3) Codon Plus RIL cells; histidine tag (C); made in house; host or cells: E. coli BL21 (DE3) Codon Plus RIL
T1 sequence (P13053 1-423): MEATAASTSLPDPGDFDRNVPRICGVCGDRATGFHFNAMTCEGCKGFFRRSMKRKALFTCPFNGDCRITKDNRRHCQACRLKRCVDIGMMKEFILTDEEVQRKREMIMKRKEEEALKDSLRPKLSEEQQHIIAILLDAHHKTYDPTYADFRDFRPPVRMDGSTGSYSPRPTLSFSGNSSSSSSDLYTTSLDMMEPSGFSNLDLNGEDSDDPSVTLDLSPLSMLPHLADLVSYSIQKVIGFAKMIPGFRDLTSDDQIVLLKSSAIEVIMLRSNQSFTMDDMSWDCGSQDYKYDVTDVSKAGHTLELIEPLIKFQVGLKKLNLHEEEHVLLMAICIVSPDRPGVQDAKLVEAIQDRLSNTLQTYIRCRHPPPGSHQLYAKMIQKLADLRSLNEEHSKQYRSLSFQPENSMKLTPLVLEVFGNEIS
Description: Vitamin D receptor binding, competition with [3H]-1,25(OH)2D3. The conditions noted are these: FIG. 1. As for the experimental part: Full-length recombinant rat receptor was expressed in E. coli BL21 (DE3) Codon Plus RIL cells and purified to homogeneity using two different column chromatography systems. The first system was a nickel affinity resin that utilizes the C-terminal histidine tag on this protein. The protein that was eluted from this resin was further purified using ion exchange chromatography (S-Sepharose Fast Flow). Aliquots of the purified protein were quick frozen in liquid nitrogen and stored at −80° C. until use. For use in binding assays, the protein was diluted in TEDK50 (50 mM Tris, 1.5 mM EDTA, pH7.4, 5 mM DTT, 150 mM KCl) with 0.1% Chaps detergent. The receptor protein and ligand concentration was optimized such that no more than 20% of the added radiolabeled ligand was bound to the receptor.
Radiolabeled and unlabeled ligands were added to 100 mcl of the diluted protein at a final ethanol concentration of ≦10%, mixed and incubated overnight on ice to reach binding equilibrium. The following day, 100 mcl of hydroxylapatite slurry (50%) was added to each tube and mixed at 10-minute intervals for 30 minutes. The hydroxylapaptite was collected by centrifugation and then washed three times with Tris-EDTA buffer (50 mM Tris, 1.5 mM EDTA, pH 7.4) containing 0.5% Titron X-100. […] Total binding was determined from the tubes containing only radiolabeled ligand.

The subject of assay [3] is 24-hydroxylase (24Ohase) gene promoter in ROS 17/2.8 (bone) cells. The assay is described as follows: In vitro transcription assay (luciferase reporter). It is filed as cell-based. The conditions noted are these: FIG. 3; for EC50: ROS 17/2.8 cells, 24Ohase promoter-luciferase, sixteen hours after dosing, read-out: EC50, transcriptional activity in bone cells. On the procedure: Transcription activity was measured in ROS 17/2.8 (bone) cells that were stably transfected with a 24-hydroxylase (24Ohase) gene promoter upstream of a luciferase reporter gene (Arbour et al., 1998). Cells were given a range of doses. Sixteen hours after dosing the cells were harvested and luciferase activities were measured using a luminometer. RLU=relative luciferase units.
A general note: In a reporter assay the amount or activity of a reporter protein is the signal.

Assay [4] is described as follows: Bone calcium mobilization (serum calcium) in vitamin D-deficient rats. It is filed as in vivo, Sprague-Dawley rats. On the procedure: as §1, §2
Assay [5] deals with Human promyelocytic leukemia (HL60) cells. Description: HL-60 differentiation (nitro blue tetrazolium reduction). The conditions noted are these: FIG. 2; for EC50: HL60 cells, four days after treatment. It is filed as cell-based. As for the experimental part:
The study drugs were dissolved in ethanol and the concentrations determined using UV spectrophotometry. Serial dilutions were prepared so that a range of drug concentrations could be tested without changing the final concentration of ethanol (≦0.2%) present in the cell cultures.
Human promyelocytic leukemia (HL60) cells were grown in RPMI-1640 medium containing 10% fetal bovine serum. The cells were incubated at 37° C. in the presence of 5% CO2.
HL60 cells were plated at 1.2×10^5 cells/ml. Eighteen hours after plating, cells in duplicate were treated with drug. Four days later, the cells were harvested and a nitro blue tetrazolium reduction assay was performed (Collins et al., 1979; J. Exp. Med. 149:969-974). The percentage of differentiated cells was determined by counting a total of 200 cells and recording the number that contained intracellular black-blue formazan deposits. Verification of differentiation to monocytic cells was determined by measuring phagocytic activity (data not shown).

Molecules are shown by their SMILES. “Also recorded” adds a separate entry of the source.

On to `C=C1[C@H](O)CC(=C/C=C2\CCC[C@]3(C)/C(=C(/C)CCCC(C)(C)O)CC[C@@H]23)C[C@H]1O` [VIT-III, 17(Z)-1α,25-dihydroxy-17(20)-dehydro-2-methylene-19-norvitamin D3], for which the “intestinal calcium transport activity as compared to 1,25(OH)2D3” value in assay [1] was “significant increase in intestinal calcium transport activity; also recorded: relatively high activity”. The “binding to the receptor as compared to 1,25-(OH)2D3” value in assay [2] (full length recombinant rat VDR) was “bound equally well”. In assay [2] (full-length recombinant rat VDR), the Ki turned out to be 0.05 nM. The “transcriptional activity in bone cells as compared to 1α,25-dihydroxyvitamin D3” value in assay [3] is “about the same transcriptional activity”. Besides, the concentration for a half-maximal effect (EC50) in assay [3] is 0.0044 nM; in assay [5] (Homo sapiens, HL-60, 96 h), 0.37 nM. For the same molecule, the “mobilization of bone calcium (serum calcium)” value in assay [4] (260 pmol/day for 4 consecutive days) was “significant mobilization of bone calcium”; in assay [4] (2340 pmol/day and then 7020 pmol/day), “progressively increasing serum calcium levels well above the effects seen with 1,25(OH)2D3”. Moreover, the “HL-60 cell differentiation potency as compared to 1,25(OH)2D3” value in assay [5] is on record as “as potent as 1,25(OH)2D3”.
With `C=C1/C(=C\C=C2/CCC[C@]3(C)[C@@H]([C@H](C)CCCC(C)(C)O)CC[C@@H]23)C[C@@H](O)C[C@@H]1O` [1α,25-dihydroxyvitamin D3, reference compound], the EC50 in assay [3] amounted to 0.29 nM; in assay [5], 1.3 nM. Besides, the serum calcium levels result in assay [4] (native hormone at the dosage tested, FIG. 4) is on record as “increased serum calcium levels”.
